“Also recorded” adds a separate entry of the source. One block for each compound: values may come before it.
Columns and labels:
[1] = tested on: PANC1 pancreatic cancer cells; assay: MTT cell viability assay in PANC1 cells; assay type: cell-based; conditions: for IC50: 4 days treatment
Experimental: (§1) The PRMT5 inhibitory activity of the compounds from the screen was confirmed using both AlphaLISA and an MTT [(3-(4,5-dimethylthiazolyl-2)-2,5-diphenyltetrazolium bromide)] assay (PerkinElmer, Waltham, MA). For the MTT assay, cells were seeded at 90% confluence in 96-well plates and titrated with different dosages of compound (IIa) for 4 days. Media was then removed and 100 μl of MTT (Sigma-Aldrich, St. Louis, MO) was added per well. Cells were incubated for 2 hours at 37° C. before adding 100 μl of DMSO to each well and quantified with the SYNERGY™ H1 Multi-Mode Reader (BioTek Instruments Inc., Winooski, VT).
(§2) In order to identify small-molecule PRMT5 inhibitors with increased efficacy compared to compound (IIa), lead optimization of compound (IIa) was performed. Briefly, the pyrozolo-pyrimidine core was maintained and peripheral groups were either added or modified. Compounds were tested to identify PRMT5 inhibitors and their corresponding IC50 values using an MTT assay. For the MTT assay cells (HT-29 or PANC1) were seeded at 90% confluence in 96-well plates and titrated with different dosages of compound (IIa) for 4 days. Media was then removed and 100 μl of MTT (Sigma-Aldrich) was added per well. Cells were incubated for 2 hours at 37° C. before adding 100 μl of DMSO to each well and quantified with the Synergy H1 Multi-Mode Reader (BioTek Instruments Inc., Winooski, VT).

[2] = tested on: CRC cells (HT29, HCT116 and DLD1); assay: MTT cell viability assay in CRC cell lines; assay type: cell-based; conditions: for cell viability in CRC cells (HT29, HCT116, DLD1), MTT: increasing concentrations; for IC50: range over HT29, HCT116 and DLD1
Experimental: (§3) The PRMT5 inhibitory activity of the compounds from the screen was confirmed using both AlphaLISA and an MTT [(3-(4,5-dimethylthiazolyl-2)-2,5-diphenyltetrazolium bromide)] assay (PerkinElmer, Waltham, MA). For the MTT assay, cells were seeded at 90% confluence in 96-well plates and titrated with different dosages of compound (IIa) for 4 days. Media was then removed and 100 μl of MTT (Sigma-Aldrich, St. Louis, MO) was added per well. Cells were incubated for 2 hours at 37° C. before adding 100 μl of DMSO to each well and quantified with the SYNERGY™ H1 Multi-Mode Reader (BioTek Instruments Inc., Winooski, VT). The expression of PRMT5 was examined in pancreatic ductal adenocarcinoma cells at multiple stages of disease progression and in multiple colorectal cancer cell lines. Pancreatic control (HPNE) and cancer cell lines (PANC1, MiaPaCa2 and AsPC1) were grown in Dulbecco's Modified Eagle Medium (DMEM) (GE Healthcare, Little Chalfont, UK), supplemented with 1% of penicillin/streptomycin, 10% fetal bovine serum (FBS). Colon control (FHC) and cancer (HT29, HCT116, and DLD1) cell lines were maintained in RPMI 1640 Medium (Roswell Park Memorial Institute Medium) (GE Healthcare, Little Chalfont, UK), containing 1% penicillin/streptomycin and 10% FBS, while FHC cells were cultured under the same condition with further addition of 25 mM HEPES (4-(2-hydroxyethyl)-1-piperazineethanesulfonic acid), 10 ng/ml cholera toxin, 0.005 mg/ml insulin, 0.005 mg/ml transferring, and 100 ng/ml hydrocortisone. All cell lines were cultured at 37° C. under 5% CO2. The PDAC and CRC cell lines described above were treated with increasing concentrations of compound (IIa) or the commercially available PRMT5 inhibitor EPZ015666 [drawing 12] and quantified for cell viability using the MTT assay described above. […] A soft agar experiment was also performed to determine the effect of compound (IIa) on colony growth.

PRMT5 = molecular target: T1, PRMT5 (Homo sapiens, UniProt O14744); assay: AlphaLISA PRMT5 methylation assay (biotin-histone H4R3, SAM); assay type: biochemical; conditions: PRMT5 methylation of histone H4R3, in vitro; read-out: IC50 using AlphaLISA
T1 construct: Flag; made in house; host or cells: 293 cells
Experimental: FIG. 1 is a schematic illustration of the AlphaLISA technique for the identification of small-molecule PRMT5 inhibitors. Biotinylated substrate (histone H4) is incubated with PRMT5 and methyl donor, S-adenosyl-1-methionine (SAM). PRMT5 symmetrically dimethylates the third arginine (R3) on biotin-H4 to form biotin-H4R3me2. This product is recognized by Acceptor beads specific for this methylation site. Donor beads have a streptavidin tag and bind to biotin-H4. Interaction between the Acceptor and Donor beads emits a chemiluminescent signal, which is detected by an ENVISION™ Reader (PerkinElmer, Waltham, MA). The methylation activity of PRMT5 is proportional to the intensity of this signal.
In order to identify PRMT5 inhibitors, the AlphaLISA technique (PerkinElmer, Waltham, MA) was adapted to an assay that could precisely quantify PRMT5 dimethylation of its substrate in a 384-well HTS platform (FIG. 1). The AlphaLISA high-throughput screen comprises incubating a biotinylated substrate (e.g., histone H4), PRMT5, and a methyl donor (e.g., S-adenosyl-1-methionine (SAM)); PRMT5 dimethylates the biotinylated substrate and the dimethylated biotinylated substrate is recognized by Acceptor beads specific for the methylation site. Donor beads comprising a tag (e.g., streptavadin) bind to the biotinylated substrate, and interaction between the Acceptor beads and Donor beads emits a signal (e.g., chemiluminescent signal), which can be detected. The methylation activity of PRMT5 is proportional to the intensity of the signal.
In one embodiment of the method used to identify the compounds disclosed herein, PRMT5 enzyme was purified with anti-Flag-M2 beads (Sigma-Aldrich, St. Louis, MO) from 293 cells overexpressing the Flag-PRMT5 protein (Wei et al., Proc Natl Acad Sci USA, 2013; 110: 13516-13521). The enzyme prep was diluted at 1:10 in assay buffer (30 mM Tris, pH 8.0, 1 mM DTT, 0.01% BSA, 0.01% Tween-20) before use. […] The plates were read using an ENVISION™ Reader (PerkinElmer, Waltham, MA).

[3] = tested on: PDAC cells (PANC1, MiaPaCa2 and AsPC1); assay: MTT cell viability assay in PDAC cell lines; assay type: cell-based; conditions: for cell viability in PDAC cells (PANC1, MiaPaCa2, AsPC1), MTT: increasing concentrations; for IC50: range over PANC1, MiaPaCa2 and AsPC1
Experimental: as §3

HT-29 colon cancer cells = assay: MTT cell viability assay in HT-29 cells; assay type: cell-based; conditions: for IC50: 4 days treatment
Experimental: as §1, §2

HT29 cells = assay: HT29 subcutaneous xenograft tumor efficacy study in NSG mice; assay type: in vivo; conditions: 20 mg/kg intraperitoneally 3×/week, vs vehicle control, n=4
Experimental: (§4) NSG (NOD scid gamma) mice were obtained from the In Vivo Therapeutics Core at Indiana University School of Medicine. After acclimation for 7 days, NSG mice (6-8 weeks old) were xenografted with mycoplasma-free PANC1 or HT29 cells subcutaneously (1×10^7 PANC1 or 3×10^6 HT29 cells used per mouse in 0.2 ml of a 1:1 mix of phosphate-buffered saline and MATRIGEL™) (BD Biosciences, San Jose, CA). Mice were randomized when tumor volumes reached about 100 mm^3. Mice were treated with either vehicle control or 20 mg/kg of compound (Ia) (drug stock dissolved in 1:1 CREMOPHOR™:ethanol solution) intraperitoneally 3 times per week. Tumor volumes and body weights were measured twice a week. The study was performed in accordance with the guidelines and standards of the Institutional Animal Care and Use Committee (IACUC). […] NSG (NOD scid gamma) mice were obtained from the In Vivo Therapeutics Core at Indiana University School of Medicine. After acclimation for 7 days, NSG mice (6-8 weeks old) were xenografted with mycoplasma-free PANC1 or HT29 cells subcutaneously (1×10^7 PANC1 or 3×10^6 HT29 cells used per mouse in 0.2 ml of a 1:1 mix of phosphate-buffered saline and MATRIGEL™) (BD Biosciences, San Jose, CA). Mice were randomized when tumor volumes reached about 100 mm^3. […] Tumor volumes and body weights were measured twice a week. […]

[4] = Body weight of xenografted NSG mice during treatment; assay type: in vivo; conditions: 20 mg/kg intraperitoneally 3×/week, over the course of treatment
Experimental: NSG (NOD scid gamma) mice were obtained from the In Vivo Therapeutics Core at Indiana University School of Medicine. After acclimation for 7 days, NSG mice (6-8 weeks old) were xenografted with mycoplasma-free PANC1 or HT29 cells subcutaneously (1×10^7 PANC1 or 3×10^6 HT29 cells used per mouse in 0.2 ml of a 1:1 mix of phosphate-buffered saline and MATRIGEL™) (BD Biosciences, San Jose, CA). Mice were randomized when tumor volumes reached about 100 mm^3. Mice were treated with either vehicle control or 20 mg/kg of compound (Ia) (drug stock dissolved in 1:1 CREMOPHOR™:ethanol solution) intraperitoneally 3 times per week. Tumor volumes and body weights were measured twice a week. The study was performed in accordance with the guidelines and standards of the Institutional Animal Care and Use Committee (IACUC). […] NSG (NOD scid gamma) mice were obtained from the In Vivo Therapeutics Core at Indiana University School of Medicine. After acclimation for 7 days, NSG mice (6-8 weeks old) were xenografted with mycoplasma-free PANC1 or HT29 cells subcutaneously (1×10^7 PANC1 or 3×10^6 HT29 cells used per mouse in 0.2 ml of a 1:1 mix of phosphate-buffered saline and MATRIGEL™) (BD Biosciences, San Jose, CA). Mice were randomized when tumor volumes reached about 100 mm^3. Mice were treated with either vehicle control or 20 mg/kg of compound (IIa) (drug stock dissolved in 1:1 CREMOPHOR™:ethanol solution) intraperitoneally 3 times per week. Tumor volumes and body weights were measured twice a week. The study was performed in accordance with the guidelines and standards of the Institutional Animal Care and Use Committee (IACUC).

PANC1 cells = assay: PANC1 subcutaneous xenograft tumor efficacy study in NSG mice; assay type: in vivo; conditions: 20 mg/kg intraperitoneally 3×/week, vs vehicle control, n=4
Experimental: as §4

NF-κB [5] = assay: NF-κB luciferase assay in HT29 cells; assay type: cell-based; conditions: increasing concentrations
Description: (§5) Previously, it was discovered that PRMT5 activates NF-κB through methylation of its p65 subunit in HEK293 cells (Wei et al., Proc Natl Acad Sci USA, 2013; 110: 13516-13521; Wei et al., Cell Cycle, 2013; 13: 32-41). As shown in FIGS. 11A and 11B, overexpression of PRMT5 enhances NF-κB activity, while PRMT5 knockdown causes the opposite effect in both PANC1 (FIG. 11A) and HT-29 (FIG. 11B) cells. To determine if compound (IIa) decreases NF-κB activity, cells transfected with a NF-κB luciferase construct were treated with increasing concentrations of compound (IIa) or the control compound EPZ015666.

NF-κB [6] = assay: NF-κB luciferase assay in PANC1 cells; assay type: cell-based; conditions: increasing concentrations
Description: as §5

T1 sequence (O14744 whole entry): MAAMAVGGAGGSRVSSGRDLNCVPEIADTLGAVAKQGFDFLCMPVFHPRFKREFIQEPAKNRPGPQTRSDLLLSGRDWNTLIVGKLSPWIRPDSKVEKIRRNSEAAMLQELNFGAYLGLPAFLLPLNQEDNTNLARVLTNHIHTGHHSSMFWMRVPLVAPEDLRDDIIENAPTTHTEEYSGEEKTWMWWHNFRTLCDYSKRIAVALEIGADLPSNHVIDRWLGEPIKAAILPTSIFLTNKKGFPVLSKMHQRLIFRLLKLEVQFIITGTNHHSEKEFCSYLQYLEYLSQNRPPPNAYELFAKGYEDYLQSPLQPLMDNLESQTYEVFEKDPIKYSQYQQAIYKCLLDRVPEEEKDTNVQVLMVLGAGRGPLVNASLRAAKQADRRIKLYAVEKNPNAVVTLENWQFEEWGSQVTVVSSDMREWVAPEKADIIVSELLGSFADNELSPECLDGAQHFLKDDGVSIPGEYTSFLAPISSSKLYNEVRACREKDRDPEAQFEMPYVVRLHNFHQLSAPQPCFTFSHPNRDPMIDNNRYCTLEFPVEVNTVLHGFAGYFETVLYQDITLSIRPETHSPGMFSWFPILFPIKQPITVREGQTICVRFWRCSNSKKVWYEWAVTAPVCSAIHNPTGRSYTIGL
T1 sequence (Q9BQA1 whole entry partner): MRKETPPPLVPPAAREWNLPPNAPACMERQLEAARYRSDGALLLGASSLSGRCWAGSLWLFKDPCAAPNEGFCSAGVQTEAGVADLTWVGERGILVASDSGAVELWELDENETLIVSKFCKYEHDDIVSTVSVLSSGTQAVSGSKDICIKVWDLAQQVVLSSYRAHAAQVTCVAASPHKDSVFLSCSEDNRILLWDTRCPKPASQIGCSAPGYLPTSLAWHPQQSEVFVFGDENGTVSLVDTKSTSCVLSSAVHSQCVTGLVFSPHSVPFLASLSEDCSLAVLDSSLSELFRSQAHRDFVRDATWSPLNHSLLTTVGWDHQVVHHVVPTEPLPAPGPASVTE

Compound: O=C(NC[C@H]1C[C@@H]2CC[N@@]1C[C@@H]2CN1CCC(Cc2ccccc2)CC1)c1ccc2c(c1)OCO2 [compound (IIIa)]
- cell viability in CRC cells (HT29, HCT116, DLD1), MTT [2]: decreased significantly
- IC50 [2]: 5 to 11 µM
- IC50 (PRMT5): ~1.5 µM
- cell viability in PDAC cells (PANC1, MiaPaCa2, AsPC1), MTT [3]: decreased significantly
- IC50 [3]: 8.5 to 12.5 µM

Compound: Clc1ccc(-n2ncc3c(NCC4CCCO4)nc(Cl)nc32)cc1 (centres unmarked) [compound (If)]
- IC50 (HT-29 colon cancer cells; Homo sapiens, HT-29, 96 h): 7 µM
- IC50 ([1]; Homo sapiens, PANC-1, 96 h): 8 µM

Compound: COc1cc(C)c(Oc2cc(C)cc(O)c2O)c(O)c1 [compound (IVa)]
- cell viability in CRC cells (HT29, HCT116, DLD1), MTT [2]: decreased significantly
- IC50 [2]: 35 to 50 µM
- IC50 (PRMT5): ~16.5 µM
- cell viability in PDAC cells (PANC1, MiaPaCa2, AsPC1), MTT [3]: decreased significantly
- IC50 [3]: 22 to 51 µM

Compound: Cc1ccc(-n2ncc3c(NCc4cccnc4)nc(Cl)nc32)cc1 [compound (Ia)]
- tumor growth (tumor volume), HT29 xenograft (HT29 cells): significant tumor inhibition effect; also recorded: inhibition of tumor growth
- body weight, HT29 model [4]: did not visibly affect the body weight; also recorded: no significant changes in body weight
- body weight, PANC1 model [4]: did not visibly affect the body weight; also recorded: no significant changes in body weight
- IC50 (HT-29 colon cancer cells): 2.2 µM
- IC50 (HT-29 colon cancer cells; Homo sapiens, HT-29, 96 h): 2 µM
- cell viability in CRC cells (HT29), MTT (HT-29 colon cancer cells; increasing concentrations): decreased significantly
- tumor growth (tumor volume), PANC1 xenograft (PANC1 cells): significant tumor inhibition effect; also recorded: inhibition of tumor growth
- cell viability in PDAC cells (PANC1), MTT ([1]; increasing concentrations): decreased significantly

Compound: O=C(NC[C@H](O)CN1CCc2ccccc2C1)c1cc(NC2COC2)ncn1 [EPZ015666, reference compound]
- NF-κB activation (luciferase), HT29 (NF-κB [5]): much higher concentration; also recorded: needed a higher concentration
- cell viability in CRC cells (HT29, HCT116, DLD1), MTT [2]: lower efficacy
- IC50 [2]: 180 to 195 µM
- cell viability in PDAC cells (PANC1, MiaPaCa2, AsPC1), MTT [3]: lower efficacy
- IC50 [3]: 50 to 95 µM
- NF-κB activation (luciferase), PANC1 (NF-κB [6]): much higher concentration; also recorded: needed a higher concentration

Further lines, results first:

- IC50 ([1]; Homo sapiens, PANC-1, 96 h): 11 µM
Compound: Clc1ccc(-n2ncc3c(NCCN4CCCC4)nc(Cl)nc32)cc1 [compound (Ib)]

- IC50 (HT-29 colon cancer cells): 7 µM
- IC50 [1]: 11 µM
Compound: Clc1ccc(-n2ncc3c(NCC4CCCO4)nc(Cl)nc32)cc1 (centres unmarked) [compound (Ig)]
